Our source for the Activity values is ChEMBL document CHEMBL4406848, “Novel water soluble BODIPY compounds: Synthesis, photochemical, DNA interaction, topoisomerases inhibition and photodynamic activity properties” (Eur J Med Chem, 2019).

The nature of assay [1]: Induction of singlet oxygen generation in TBS solution assessed as singlet oxygen quantum yield by measuring reduction in ADMA irradiated with 650 nanometer laser light. Type of assay: functional.
Assay [2] in a line: Induction of singlet oxygen generation in DMSO solution assessed as singlet oxygen quantum yield by measuring reduction in DPBF irradiated with 650 nanometer laser light. Type of assay: functional.

As to `CN(C)c1ccc2nc3ccc(=[N+](C)C)cc-3sc2c1`, the Activity in assay [1] is 0.52; in assay [2], 0.57.
